In patent US20250313553A1, “ANNULATED 2-AMINO-3-CYANO THIOPHENES AND DERIVATIVES FOR THE TREATMENT OF CANCER” (Boehringer Ingelheim Int'l GmbH Corp., priority 2021, published 2025):
In brackets after ≈: the same amount, converted by molar mass. Read-outs that look alike come from different tables or passages of the source.

Key:
KRAS (G12D) and SOS1 = target: T1, KRAS (G12D) and SOS1 (Homo sapiens, UniProt P01116, G12D); assay: KRAS::SOS1 AlphaScreen binding assay, KRAS G12D
T1 construct: KRAS (G12D) 1-169, N-terminal 6His-tag; 6His (N); purchased Xtal BioStructures, Inc. (KRAS G12D); Viva Biotech Ltd (SOS1)
T1 sequence (P01116 1-169 isoform P01116-2 G12D): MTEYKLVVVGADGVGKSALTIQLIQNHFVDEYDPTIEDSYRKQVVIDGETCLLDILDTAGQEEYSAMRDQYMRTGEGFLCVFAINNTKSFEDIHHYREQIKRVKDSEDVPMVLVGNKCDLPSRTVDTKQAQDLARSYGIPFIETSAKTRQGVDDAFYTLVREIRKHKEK
Description: (§1) Low IC50 values in this assay setting are indicative of strong inhibition of protein-protein interaction between SOS1 and KRAS:
(§2) These assays measure the inhibitory effect of compounds on KRAS mutant protein-protein interactions using the Alpha Screen technology by Perkin Elmer.
(§3) For the chosen highest assay concentration of 100 μM, 150 nL of compound solution are transferred from a 10 mM DMSO compound stock solution. A series of eleven fivefold dilutions per compound are transferred to the assay plate, compound dilutions are tested in duplicates. DMSO are added as backfill to a total volume of 150 nL.
(§4) The assays run on a fully automated robotic system in a darkened room below 100 Lux. To 150 nl of compound dilution 10 μl of a mix including KRAS mutant protein, SOS1 (final assay concentrations see above) and GDP nucleotide (Sigma G7127; final assay concentration 10 μM) in assay buffer (1×PBS, 0.1% BSA, 0.05% Tween 20) are added into columns 1-24. After 30 minutes incubation time 5 μl of Alpha Screen bead mix in assay buffer are added into columns 1-23.
(§5) Plates are kept at room temperature in a darkened incubator. After an additional 60 minutes incubation time the signal is measured in a PerkinElmer Envision HTS Multilabel Reader using the AlphaScreen specs from PerkinElmer.
(§6) IC50 values are calculated and analyzed with Boehringer Ingelheim's MEGALAB IC50 application using a 4 parametric logistic model.

KRAS G12C Ba/F3 cells = KRAS G12C Ba/F3 cells (Homo sapiens, UniProt P01116, G12C, cells depend on it); assay: Ba/F3 proliferation assay, KRAS G12C; format: cell-based; settings: 72 h, AlamarBlue, read-out: KRAS G12C Ba/F3 IC50
Sequence of KRAS G12C Ba/F3 cells (P01116 whole entry G12C, canonical isoform): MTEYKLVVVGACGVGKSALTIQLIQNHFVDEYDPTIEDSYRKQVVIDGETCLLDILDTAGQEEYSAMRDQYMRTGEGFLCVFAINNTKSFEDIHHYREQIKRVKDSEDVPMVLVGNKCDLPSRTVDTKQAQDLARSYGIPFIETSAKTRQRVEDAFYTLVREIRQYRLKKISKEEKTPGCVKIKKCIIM
Description: (§7) To generate KRASG12-dependent Ba/F3 models, Ba/F3 cells are transduced with retroviruses containing vectors that harbor KRASG12 isoforms. Platinum-E cells (Cell Biolabs) are used for retrovirus packaging. Retrovirus is added to Ba/F3 cells. To ensure infection, 4 μg/mL polybrene is added and cells are spinfected. […] Cells with an infection efficiency of 10% to 20% are further cultivated and puromycin selection with 1 μg/mL is initiated. As a control, parental Ba/F3 cells are used to show selection status. Selection is considered successful when parental Ba/F3 cells cultures died. To evaluate the transforming potential of KRASG12 mutations, the growth medium is no longer supplemented with IL-3. Ba/F3 cells harboring the empty vector are used as a control. Approximately ten days before conducting the experiments, puromycin is left out.
(§8) All treatments are performed in technical duplicates. […] AlamarBlue™ (ThermoFisher), a viability stain, is added and fluorescence measured in the PerkinElmer Envision HTS Multilabel Reader. The raw data are imported into and analyzed with the Boehringer Ingelheim proprietary software MegaLab (curve fitting based on the program PRISM, GraphPad Inc.).

CYP3A4 = target: T2, CYP3A4 (Homo sapiens, UniProt P08684); assay: Mechanism based inhibition of CYP3A4 assay (MBI 3A4); format: in vitro ADME; settings: 25 uM, hydroxy-midazolam formation after 30 min preincubation relative to 0 min
T2 construct: assayed in human liver microsomes (0.02 mg/mL) with midazolam (15 μM) as a substrate; from tissue; host or cells: human liver microsomes
T2 sequence (P08684 whole entry): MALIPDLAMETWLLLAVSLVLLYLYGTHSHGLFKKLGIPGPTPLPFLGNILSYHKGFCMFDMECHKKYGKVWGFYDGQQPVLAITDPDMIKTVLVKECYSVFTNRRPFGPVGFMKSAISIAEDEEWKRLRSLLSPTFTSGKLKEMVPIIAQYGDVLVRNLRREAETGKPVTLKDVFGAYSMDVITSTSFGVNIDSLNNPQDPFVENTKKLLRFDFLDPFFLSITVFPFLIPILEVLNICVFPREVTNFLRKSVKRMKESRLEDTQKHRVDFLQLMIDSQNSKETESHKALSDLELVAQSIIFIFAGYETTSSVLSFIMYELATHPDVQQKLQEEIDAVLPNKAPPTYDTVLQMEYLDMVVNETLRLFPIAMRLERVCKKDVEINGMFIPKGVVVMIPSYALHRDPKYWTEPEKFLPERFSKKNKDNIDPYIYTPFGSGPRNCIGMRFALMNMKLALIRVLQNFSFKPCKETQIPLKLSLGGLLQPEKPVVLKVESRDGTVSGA
Description: The time dependent inhibition towards CYP3A4 is assayed in human liver microsomes (0.02 mg/mL) with midazolam (15 μM) as a substrate. The test compounds and water control (wells w/o test compound) are preincubated in presence of NADPH (1 mM) with human liver microsomes (0.2 mg/mL) at a concentration of 25 uM for 0 min and 30 min. After preincubation, the incubate is diluted 1:10 and the substrate midazolam is added for the main incubation (15 min). The main incubation is quenched with acetonitrile and the formation of hydroxy-midazolam is quantified via LC/MS-MS. The formation of hydroxy-midazolam from the 30 min preincubation relative to the formation from the 0 min preincubation is used as a readout. Values of less than 100% mean that the substrate midazolam is metabolized to a lower extent upon 30 min preincubation compared to 0 min preincubation. In general low effects upon 30 min preincubation are desired (corresponding to values close to 100%/not different to the values determined with water control).

KRAS G12D Ba/F3 cells = KRAS G12D Ba/F3 cells (Homo sapiens, UniProt P01116, G12D, cells depend on it); assay: Ba/F3 proliferation assay, KRAS G12D; format: cell-based; settings: 72 h, AlamarBlue, read-out: KRAS G12D Ba/F3 IC50
Sequence of KRAS G12D Ba/F3 cells (P01116 whole entry G12D): as the sequence (P01116 whole entry G12C, canonical isoform) above, with C12D counted along it
Description: as §7, §8

[1] = Solubility measurement (DMSO solution precipitation method); format: physicochemical; settings: aqueous buffer, kinetic from dmso stock
Description: The DMSO solution is diluted with an aqueous medium (McIlvaine buffer with pH=4.5 or 6.8) to a final concentration of 250 μM. After 24 h of shaking at ambient temperature a potentially formed precipitate is removed by filtration. The concentration of the test compound in the filtrate is determined by LC-UV methods by calibrating the signal to the signal of a reference solution with complete dissolution of the test compound in acetonitrile/water (1:1) with known concentration.

KRAS G12V Ba/F3 cells = KRAS G12V Ba/F3 cells (Homo sapiens, UniProt P01116, G12V, cells depend on it); assay: Ba/F3 proliferation assay, KRAS G12V; format: cell-based; settings: 72 h, AlamarBlue, read-out: KRAS G12V Ba/F3 IC50
Sequence of KRAS G12V Ba/F3 cells (P01116 whole entry G12V): as the sequence (P01116 whole entry G12C, canonical isoform) above, with C12V counted along it
Description: as §7, §8

KRAS (G12V) and SOS1 = target: T3, KRAS (G12V) and SOS1 (Homo sapiens, UniProt P01116, C118S/G12V); assay: KRAS::SOS1 AlphaScreen binding assay, KRAS G12V
T3 construct: KRAS (G12V) 1-169, N-terminal 6His-tag for purification; 6His (N, cleaved yes); TEV cleavage site
T3 sequence (P01116 1-169 isoform P01116-2 G12V/C118S): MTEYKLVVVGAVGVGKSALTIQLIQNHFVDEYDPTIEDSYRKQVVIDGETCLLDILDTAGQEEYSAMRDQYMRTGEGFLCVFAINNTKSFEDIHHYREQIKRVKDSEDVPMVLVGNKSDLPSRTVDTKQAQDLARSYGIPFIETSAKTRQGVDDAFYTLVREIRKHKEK
Description: as §1, §2, §3, §4, §5, §6

[2] = Plasma protein binding assay (PPB), equilibrium dialysis; format: in vitro ADME; settings: bovine, 10% FCS in PBS, read-out: PPB 10% FCS (% fu)
Description: Binding of test compounds to plasma was determined using equilibrium dialysis (ED) and quantitative mass spectrometry interfaced with liquid chromatography (LC-MS). In brief, ED was performed with dialysis devices consisting of two chambers separated by a semipermeable membrane with a molecular weight cut-off of 5-10 kg/mol. One chamber was filled with 10% FCS in PBS containing 1-10 μmol/L test compound and the other chamber was filled with phosphate-buffer saline (PBS) with or without dextran. The dialysis chamber was incubated for 3-5 hours at 37° C. After incubation, protein was precipitated from aliquots of each chamber and the concentration of test compound in the supernatant of the plasma-containing compartment (cserum) and of the buffer-containing compartment (cbuffer) was determined by LC-MS. The fraction of unbound test compound (not bound to plasma) (fu) was calculated according to the following equation: […]

[3] = McIlvaine buffer pH 4.5, 24 h, read-out: solubility pH 4.5
[4] = McIlvaine buffer pH 6.8, 24 h, read-out: solubility pH 6.8

IC50 (KRAS (G12D) and SOS1)	GI50 (KRAS G12C Ba/F3 cells)	MBI 3A4 (CYP3A4)	GI50 (KRAS G12D Ba/F3 cells)	solubility at 24 h [1, 3]	solubility at 24 h [1, 4]	GI50 (KRAS G12V Ba/F3 cells)	IC50 (KRAS (G12V) and SOS1)	fraction unbound [2]	SMILES
5 nM	291 nM	65%	214 nM	> 110 µg/mL	> 110 µg/mL	361 nM			C[C@H](Oc1nccc(-c2noc([C@@]3(C)CCCc4sc(N)c(C#N)c43)n2)n1)[C@@H]1CCCN1C [Example V-10]
16 nM	1240 nM	57%	1090 nM			1680 nM			C[C@H]1CN(C)CCN1c1nccc(-c2noc([C@@]3(C)CCCc4sc(N)c(C#N)c43)n2)n1 [Example V-7]
15 nM	831 nM	75%	823 nM	> 97 µg/mL	> 91 µg/mL	1080 nM			C[C@H]1CNCCN1c1nccc(-c2noc([C@@]3(C)CCCc4sc(N)c(C#N)c43)n2)n1 [Example V-4]
26 nM	1270 nM	65%	961 nM	> 110 µg/mL	76 µg/mL (≈ 169 µM)	1440 nM	52 nM	0.21	C[C@H]1CN(C)CCN1c1cccc(-c2noc([C@@]3(C)CCCc4sc(N)c(C#N)c43)n2)n1 [Example V-1]
5 nM	64 nM	49%	51 nM	> 110 µg/mL	> 110 µg/mL	76 nM			CC(C)N1CCCN(c2nccc(-c3noc([C@@]4(C)CCCc5sc(N)c(C#N)c54)n3)n2)[C@@H](C)C1 [Example V-9]
3 nM	371 nM		256 nM	> 130 µg/mL	100 µg/mL (≈ 191 µM)	917 nM	6 nM		COCCCN1CCCN(c2nccc(-c3noc([C@@]4(C)CCCc5sc(N)c(C#N)c54)n3)n2)[C@@H](C)C1 [Example V-2]
7 nM	493 nM	55%	293 nM	> 100 µg/mL	92 µg/mL (≈ 198 µM)	640 nM			C[C@H]1CN(C)CCCN1c1nccc(-c2noc([C@@]3(C)CCCc4sc(N)c(C#N)c43)n2)n1 [Example V-5]
7 nM	481 nM		390 nM	> 96 µg/mL	> 95 µg/mL	443 nM	9 nM	0.51	C[C@H](Oc1cccc(-c2noc([C@@]3(C)CCCc4sc(N)c(C#N)c43)n2)n1)[C@@H]1CCCN1C [Example V-8]
8 nM	1430 nM	71%	525 nM	> 93 µg/mL	18 µg/mL (≈ 40 µM)	1690 nM	18 nM		C[C@H]1CN(C)CCN1c1nccc(-c2cc([C@@]3(C)CCCc4sc(N)c(C#N)c43)on2)n1 [Example V-27]
12 nM	811 nM		801 nM	88 µg/mL (≈ 195 µM)	85 µg/mL (≈ 189 µM)	1070 nM			C[C@H]1CNCCCN1c1nccc(-c2noc([C@@]3(C)CCCc4sc(N)c(C#N)c43)n2)n1 [Example V-6]

SMILES	IC50 (KRAS (G12D) and SOS1)	GI50 (KRAS G12C Ba/F3 cells)	MBI 3A4 (CYP3A4)	GI50 (KRAS G12D Ba/F3 cells)	solubility at 24 h [1, 3]	solubility at 24 h [1, 4]	GI50 (KRAS G12V Ba/F3 cells)	IC50 (KRAS (G12V) and SOS1)	fraction unbound [2]
C[C@H](Oc1ccnc(-c2noc([C@@]3(C)CCCc4sc(N)c(C#N)c43)n2)n1)[C@@H]1CCCN1C [Example V-11]					> 116 µg/mL	> 116 µg/mL			0.61
